# Reference: patent EP0477700A1, “6'-C-alkyl- or alkynyl-neplanocin A, and its preparation process and use” (priority 1990, dated 1992)
# Like-named read-outs stand apart in the source and are kept apart here.
# Experiments:
# [1] = biological target: T1, adenosine deaminase (Bos taurus, UniProt P56658); assay: Adenosine deaminase resistance (remaining compound measured by HPLC); conditions: for Percent remainder 0 minute / Percent remainder 30 minutes: 5 mM compound in 0.05 M Tris-HCl buffer (pH 7.2), adenosine deaminase (calf intestine), 25°C
# T1 sequence (P56658 1-363): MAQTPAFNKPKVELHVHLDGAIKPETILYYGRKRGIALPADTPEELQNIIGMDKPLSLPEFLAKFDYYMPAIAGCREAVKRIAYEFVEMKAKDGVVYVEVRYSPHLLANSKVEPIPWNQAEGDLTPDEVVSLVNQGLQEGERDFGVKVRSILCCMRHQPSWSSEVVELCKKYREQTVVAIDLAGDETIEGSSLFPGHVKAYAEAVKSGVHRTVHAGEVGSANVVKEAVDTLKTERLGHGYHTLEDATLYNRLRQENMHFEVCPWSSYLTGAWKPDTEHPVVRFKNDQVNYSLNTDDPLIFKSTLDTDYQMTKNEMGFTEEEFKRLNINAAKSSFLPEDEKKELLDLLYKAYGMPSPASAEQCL
# [2] = tested on: Vesicular Stomatitis Virus (VSV); assay: microbe, parasite or virus in culture; type: cell-based; conditions: 36 h
# [3] = tested on: Vero cells; assay: Cytotoxicity in Vero cells (minimum cytotoxicity concentration)
# [4] = tested on: parainfulenza virus; assay: Antiviral activity against parainfluenza virus in Vero cells (minimum virus growth inhibitory concentration); type: cell-based
Compound,Percent remainder 0 minute [1] [%],Percent remainder 30 minutes [1] [%],MIC [2] [µg/mL],MCC [3],"MIC ([4]; minimum virus growth inhibitory concentration, parainfulenza virus, Vero cells, read-out: MIC) [µg/mL]",MIC [4] [µg/mL],inactivated ([1]; summary of the adenosine deaminase resistance test (conditions of Table 3)) [%]
"CCC(O)C1=C[C@@H](n2cnc3c(N)ncnc32)[C@H](O)[C@@H]1O (stereo partly shown) [6'-C-Ethylneplanocin A, 6'-C-ethylneplanocin A]",100,94,–,–,–,–,–
"C#CC(O)C1=C[C@@H](n2cnc3c(N)ncnc32)[C@H](O)[C@@H]1O (stereo partly shown) [6'-C-Ethynylneplanocin A, 6'-C-ethynylneplanocin A]",100,96,0.1,–,–,–,–
"CC(O)C1=C[C@@H](n2cnc3c(N)ncnc32)[C@H](O)[C@@H]1O (stereo partly shown) [6'-C-Methylneplanocin A, 6'-C-methylneplanocin A]",100,92,0.1,≧400 µg/mℓ,0.1,–,–
Nc1ncnc2c1ncn2[C@@H]1C=C(CO)[C@@H](O)[C@H]1O [Neplanocin A],100,0,3.9,≧40 µg/mℓ,–,0.1,100
